# Starred links: 1 amine or outer side, 2 acyl side, 3 side chain; linkers in the order of their positions; H or OH if unused. Non-standard residues stand in square brackets, D forms with d. Residues, ends and D or L forms follow the SMILES beside them. dPro(4R-(4-pyridylmethyl)) = O=C(O)[C@H]1C[C@@H](Cc2ccncc2)CN1; Trp(βS-Me,4-F) = C[C@@H](c1c[nH]c2cccc(F)c12)[C@H](N)C(=O)O; Bip(4'-COOH) = N[C@@H](Cc1ccc(-c2ccc(C(=O)O)cc2)cc1)C(=O)O; X4 = O=C([C@H]1[C@@H](Cc2ccncc2)CCN1[*:1])[*:2]; Ala(pyrimidin-5-yl) = N[C@@H](Cc1cncnc1)C(=O)O; Phe(4-COOH) = N[C@@H](Cc1ccc(C(=O)O)cc1)C(=O)O; Bip = N[C@@H](Cc1ccc(-c2ccccc2)cc1)C(=O)O; Pro(cis-4-F) = O=C(O)[C@@H]1C[C@H](F)CN1; X46 = O=C([C@@H](Cc1cncnc1)N[*:1])[*:2]; dPhe(4-F) = N[C@H](Cc1ccc(F)cc1)C(=O)O; Dap(CONH2) = NC(=O)NC[C@H](N)C(=O)O; d(αMeD) = C[C@@](N)(CC(=O)O)C(=O)O; 4Pal = N[C@@H](Cc1ccncc1)C(=O)O; d3Pal = N[C@H](Cc1cccnc1)C(=O)O; dCha = N[C@H](CC1CCCCC1)C(=O)O; NMeDab = CN[C@@H](CCN)C(=O)O; dCba = N[C@H](CC1CCC1)C(=O)O; dOrn = NCCC[C@@H](N)C(=O)O; Dab = NCC[C@H](N)C(=O)O; Aib = CC(C)(N)C(=O)O
# Target: T1, IL-1β (Homo sapiens, UniProt P01584)
# T1 construct: purchased BioLegend 579404
# T1 sequence (P01584 117-269): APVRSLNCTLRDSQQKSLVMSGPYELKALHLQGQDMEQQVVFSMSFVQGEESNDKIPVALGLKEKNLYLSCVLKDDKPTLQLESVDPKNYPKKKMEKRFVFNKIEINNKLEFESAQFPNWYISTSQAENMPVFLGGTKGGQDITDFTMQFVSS
# Experiment: IL-6 assay in MRC5 cells: inhibition of IL-1β induced IL-6 secretion (AlphaLISA)
# Assay type: cell-based
# Settings: inhibition of IL-1β induced IL-6 secretion in MRC5 cells; compound pre-incubated 1 hour with recombinant human IL-1β; read-out: MRC5 IC50
# Outline: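 Compound was pre-incubated 1 h at ambient temperature with recombinant human IL-1β at 2λ EC80 before adding human lung fibroblast MRC5 cells (3000/well) in EMEM with 0.025% BSA. After overnight culture at 37 °C, 5% CO2, secreted IL-6 in conditioned medium was measured by AlphaLISA; IC50 from 4-parameter logistic fits.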
row,SMILES,IC50
1,"C[C@@H](c1c[nH]c2cccc(F)c12)[C@@H]1NC(=O)[C@@H]2C[C@H](F)CN2C(=O)CNC(=O)[C@H](Cc2ccc(C(=O)O)cc2)NC(=O)[C@H](Cc2ccncc2)NC(=O)[C@H](Cc2ccc(-c3ccc(C(=O)O)cc3)cc2)NC(=O)[C@H]2[C@@H](Cc3ccncc3)CCN2C(=O)CNC(=O)[C@H](CCN)NC(=O)[C@H](CCC(N)=O)NC(=O)[C@@H](Cc2cncnc2)NC(=O)C(C)(C)NC(=O)[C@H](Cc2c[nH]c3ccccc23)NC(=O)[C@H](CO)NC(=O)C(C)(C)NC1=O [Example 233] (cyclo([Bip(4'-COOH)][4Pal][Phe(4-COOH)]G[Pro(cis-4-F)][Trp(βS-Me,4-F)][Aib]SW[Aib][X46]Q[Dab]G[X4]))",0.03 nM
2,"C[C@@H](c1c[nH]c2cccc(F)c12)[C@@H]1NC(=O)[C@@H]2C[C@H](F)CN2C(=O)CNC(=O)[C@H](Cc2ccc(C(=O)O)cc2)NC(=O)[C@H](Cc2ccncc2)NC(=O)[C@H](Cc2ccc(-c3ccc(C(=O)O)cc3)cc2)NC(=O)[C@H]2[C@@H](Cc3ccncc3)CCN2C(=O)CNC(=O)[C@H](CCN)NC(=O)[C@H](CCC(N)=O)NC(=O)[C@@H](CC(=O)O)NC(=O)C(C)(C)NC(=O)[C@H](Cc2c[nH]c3ccccc23)NC(=O)[C@H](CO)NC(=O)C(C)(C)NC1=O [Example 234] (cyclo([Bip(4'-COOH)][4Pal][Phe(4-COOH)]G[Pro(cis-4-F)][Trp(βS-Me,4-F)][Aib]SW[Aib][dD]Q[Dab]G[X4]))",0.024 nM
3,"C[C@@H](c1c[nH]c2cccc(F)c12)[C@@H]1NC(=O)[C@@H]2C[C@H](F)CN2C(=O)CNC(=O)[C@H](Cc2ccc(C(=O)O)cc2)NC(=O)[C@H](Cc2ccncc2)NC(=O)[C@H](Cc2ccc(-c3ccc(C(=O)O)cc3)cc2)NC(=O)[C@H]2[C@@H](Cc3ccncc3)CCN2C(=O)CNC(=O)[C@H](CCN)N(C)C(=O)[C@H](CCC(N)=O)NC(=O)[C@H](Cc2cncnc2)NC(=O)[C@@](C)(CC(=O)O)NC(=O)[C@H](Cc2c[nH]c3ccccc23)NC(=O)[C@H](CO)NC(=O)C(C)(C)NC1=O [Example 235] (cyclo([Bip(4'-COOH)][4Pal][Phe(4-COOH)]G[Pro(cis-4-F)][Trp(βS-Me,4-F)][Aib]SW[d(αMeD)][Ala(pyrimidin-5-yl)]Q[NMeDab]G[X4]))",0.018 nM
4,"C[C@@H](c1c[nH]c2cccc(F)c12)[C@@H]1NC(=O)[C@@H]2C[C@H](F)CN2C(=O)CNC(=O)[C@H](Cc2ccc(C(=O)O)cc2)NC(=O)[C@H](Cc2ccncc2)NC(=O)[C@H](Cc2ccc(-c3ccc(C(=O)O)cc3)cc2)NC(=O)[C@H]2[C@@H](Cc3ccncc3)CCN2C(=O)CNC(=O)[C@H](CCN)NC(=O)[C@H](CCC(N)=O)NC(=O)[C@@H](Cc2ccc(F)cc2)NC(=O)[C@@](C)(CC(=O)O)NC(=O)[C@H](Cc2c[nH]c3ccccc23)NC(=O)[C@H](CO)NC(=O)C(C)(C)NC1=O [Example 236] (cyclo([Bip(4'-COOH)][4Pal][Phe(4-COOH)]G[Pro(cis-4-F)][Trp(βS-Me,4-F)][Aib]SW[d(αMeD)][dPhe(4-F)]Q[Dab]G[X4]))",0.021 nM
5,"C[C@@H](c1c[nH]c2cccc(F)c12)[C@@H]1NC(=O)[C@@H]2C[C@H](F)CN2C(=O)CNC(=O)[C@H](Cc2ccc(C(=O)O)cc2)NC(=O)[C@H](Cc2ccncc2)NC(=O)[C@H](Cc2ccc(-c3ccc(C(=O)O)cc3)cc2)NC(=O)[C@H]2[C@@H](Cc3ccncc3)CCN2C(=O)CNC(=O)[C@H](CCN)NC(=O)[C@H](CCC(N)=O)NC(=O)[C@@H](CC2CCCCC2)NC(=O)[C@@](C)(CC(=O)O)NC(=O)[C@H](Cc2c[nH]c3ccccc23)NC(=O)[C@H](CO)NC(=O)C(C)(C)NC1=O [Example 237] (cyclo([Bip(4'-COOH)][4Pal][Phe(4-COOH)]G[Pro(cis-4-F)][Trp(βS-Me,4-F)][Aib]SW[d(αMeD)][dCha]Q[Dab]G[X4]))",0.025 nM
6,"C[C@@H](c1c[nH]c2cccc(F)c12)[C@@H]1NC(=O)[C@@H]2C[C@H](F)CN2C(=O)CNC(=O)[C@H](Cc2ccc(C(=O)O)cc2)NC(=O)[C@H](Cc2ccncc2)NC(=O)[C@H](Cc2ccc(-c3ccc(C(=O)O)cc3)cc2)NC(=O)[C@H]2[C@@H](Cc3ccncc3)CCN2C(=O)CNC(=O)[C@H](CCN)NC(=O)[C@H](CCC(N)=O)NC(=O)[C@@H](Cc2cccnc2)NC(=O)[C@@](C)(CC(=O)O)NC(=O)[C@H](Cc2c[nH]c3ccccc23)NC(=O)[C@H](CO)NC(=O)C(C)(C)NC1=O [Example 240] (cyclo([Bip(4'-COOH)][4Pal][Phe(4-COOH)]G[Pro(cis-4-F)][Trp(βS-Me,4-F)][Aib]SW[d(αMeD)][d3Pal]Q[Dab]G[X4]))",0.025 nM
7,"C[C@@H](c1c[nH]c2cccc(F)c12)[C@@H]1NC(=O)[C@@H]2C[C@H](F)CN2C(=O)CNC(=O)[C@H](Cc2ccc(C(=O)O)cc2)NC(=O)[C@H](Cc2ccncc2)NC(=O)[C@H](Cc2ccc(-c3ccc(C(=O)O)cc3)cc2)NC(=O)[C@H]2[C@@H](Cc3ccncc3)CCN2C(=O)CNC(=O)[C@H](CCN)N(C)C(=O)[C@H](CCC(N)=O)NC(=O)[C@H](Cc2cncnc2)NC(=O)C(C)(C)NC(=O)[C@H](Cc2c[nH]c3ccccc23)NC(=O)[C@H](CO)NC(=O)C(C)(C)NC1=O [Example 241] (cyclo([Bip(4'-COOH)][4Pal][Phe(4-COOH)]G[Pro(cis-4-F)][Trp(βS-Me,4-F)][Aib]SW[Aib][Ala(pyrimidin-5-yl)]Q[NMeDab]G[X4]))",0.018 nM

# The remaining lines, values ahead:
row,IC50,SMILES
1,0.024 nM,"CC(C)C[C@H]1NC(=O)[C@@](C)(CC(=O)O)NC(=O)[C@H](Cc2c[nH]c3ccccc23)NC(=O)[C@H](CO)NC(=O)C(C)(C)NC(=O)[C@H]([C@@H](C)c2c[nH]c3cccc(F)c23)NC(=O)[C@@H]2C[C@H](F)CN2C(=O)CNC(=O)[C@H](Cc2ccc(C(=O)O)cc2)NC(=O)[C@H](Cc2ccncc2)NC(=O)[C@H](Cc2ccc(-c3ccc(C(=O)O)cc3)cc2)NC(=O)[C@H]2[C@@H](Cc3ccncc3)CCN2C(=O)CNC(=O)[C@H](CCN)NC(=O)[C@H](CCC(N)=O)NC1=O [Example 238] (cyclo([Bip(4'-COOH)][4Pal][Phe(4-COOH)]G[Pro(cis-4-F)][Trp(βS-Me,4-F)][Aib]SW[d(αMeD)][dL]Q[Dab]G[X4]))"
2,0.02 nM,"C[C@@H](c1c[nH]c2cccc(F)c12)[C@@H]1NC(=O)[C@@H]2C[C@H](F)CN2C(=O)CNC(=O)[C@H](Cc2ccc(C(=O)O)cc2)NC(=O)[C@H](Cc2ccncc2)NC(=O)[C@H](Cc2ccc(-c3ccc(C(=O)O)cc3)cc2)NC(=O)[C@H]2[C@@H](Cc3ccncc3)CCN2C(=O)CNC(=O)[C@H](CCN)NC(=O)[C@H](CCC(N)=O)NC(=O)[C@@H](CC2CCC2)NC(=O)[C@@](C)(CC(=O)O)NC(=O)[C@H](Cc2c[nH]c3ccccc23)NC(=O)[C@H](CO)NC(=O)C(C)(C)NC1=O [Example 239] (cyclo([Bip(4'-COOH)][4Pal][Phe(4-COOH)]G[Pro(cis-4-F)][Trp(βS-Me,4-F)][Aib]SW[d(αMeD)][dCba]Q[Dab]G[X4]))"
3,0.019 nM,"C[C@@H](c1c[nH]c2cccc(F)c12)[C@@H]1NC(=O)[C@@H]2C[C@H](F)CN2C(=O)CNC(=O)[C@H](Cc2ccc(C(=O)O)cc2)NC(=O)[C@H](Cc2ccncc2)NC(=O)[C@H](Cc2ccc(-c3ccc(C(=O)O)cc3)cc2)NC(=O)[C@H]2C[C@@H](Cc3ccncc3)CN2C(=O)CNC(=O)[C@H](CCN)NC(=O)[C@H](CCC(N)=O)NC(=O)[C@@H](CO)NC(=O)[C@@](C)(CC(=O)O)NC(=O)[C@H](Cc2c[nH]c3ccccc23)NC(=O)[C@H](CO)NC(=O)C(C)(C)NC1=O [Example 242] (cyclo([Bip(4'-COOH)][4Pal][Phe(4-COOH)]G[Pro(cis-4-F)][Trp(βS-Me,4-F)][Aib]SW[d(αMeD)][dS]Q[Dab]G[dPro(4R-(4-pyridylmethyl))]))"
4,0.022 nM,"C[C@@H](c1c[nH]c2cccc(F)c12)[C@@H]1NC(=O)[C@@H]2C[C@H](F)CN2C(=O)CNC(=O)[C@H](Cc2ccc(C(=O)O)cc2)NC(=O)[C@H](Cc2ccncc2)NC(=O)[C@H](Cc2ccc(-c3ccc(C(=O)O)cc3)cc2)NC(=O)[C@H]2C[C@@H](Cc3ccncc3)CN2C(=O)CNC(=O)[C@H](CCN)NC(=O)[C@H](CCC(N)=O)NC(=O)[C@@H](Cc2ccccc2)NC(=O)[C@@](C)(CC(=O)O)NC(=O)[C@H](Cc2c[nH]c3ccccc23)NC(=O)[C@H](CO)NC(=O)C(C)(C)NC1=O [Example 243] (cyclo([Bip(4'-COOH)][4Pal][Phe(4-COOH)]G[Pro(cis-4-F)][Trp(βS-Me,4-F)][Aib]SW[d(αMeD)][dF]Q[Dab]G[dPro(4R-(4-pyridylmethyl))]))"
5,0.03 nM,"C[C@@H](c1c[nH]c2cccc(F)c12)[C@@H]1NC(=O)[C@@H]2C[C@H](F)CN2C(=O)CNC(=O)[C@H](Cc2ccc(C(=O)O)cc2)NC(=O)[C@H](Cc2ccncc2)NC(=O)[C@H](Cc2ccc(-c3ccccc3)cc2)NC(=O)[C@H]2C[C@@H](Cc3ccncc3)CN2C(=O)CNC(=O)[C@H](CNC(N)=O)NC(=O)[C@H](CCC(N)=O)NC(=O)[C@@H](CCCCN)NC(=O)[C@@](C)(CC(=O)O)NC(=O)[C@H](Cc2c[nH]c3ccccc23)NC(=O)[C@H](CO)NC(=O)C(C)(C)NC1=O [Example 244] (cyclo([Bip][4Pal][Phe(4-COOH)]G[Pro(cis-4-F)][Trp(βS-Me,4-F)][Aib]SW[d(αMeD)][dK]Q[Dap(CONH2)]G[dPro(4R-(4-pyridylmethyl))]))"
6,0.027 nM,"C[C@@H](c1c[nH]c2cccc(F)c12)[C@@H]1NC(=O)[C@@H]2C[C@H](F)CN2C(=O)CNC(=O)[C@H](Cc2ccc(C(=O)O)cc2)NC(=O)[C@H](Cc2ccncc2)NC(=O)[C@H](Cc2ccc(-c3ccccc3)cc2)NC(=O)[C@H]2C[C@@H](Cc3ccncc3)CN2C(=O)CNC(=O)[C@H](CNC(N)=O)NC(=O)[C@H](CCC(N)=O)NC(=O)[C@@H](CCCN)NC(=O)[C@@](C)(CC(=O)O)NC(=O)[C@H](Cc2c[nH]c3ccccc23)NC(=O)[C@H](CO)NC(=O)C(C)(C)NC1=O [Example 245] (cyclo([Bip][4Pal][Phe(4-COOH)]G[Pro(cis-4-F)][Trp(βS-Me,4-F)][Aib]SW[d(αMeD)][dOrn]Q[Dap(CONH2)]G[dPro(4R-(4-pyridylmethyl))]))"

# From US20260242419A1, “A CYCLIC PEPTIDE FOR TRAPPING INTERLEUKIN-1 BETA” (Merck Sharp & Dohme LLC, priority 2023, published 2026)
